Measured values from article PMC12457078, “Inhibition of soluble epoxide hydrolase in endotoxin induced pig lung injury” (Frontiers in Pharmacology, 2025).

Test: pharmacokinetic pilot, continuous infusion in one animal
Assay type: in vivo
Conditions: pig, whole blood, intravenous, 0.1 mg/kg/h, time 240 minutes (STOP INFUSION), read-out: Conc in blood 950

## CCOCCOCCOCCCCCNC(=O)NC12CC3CC(CC(C3)C1)C2 [Compound 950]
  concentration at 240 min: 199 ng/mL
